Test results taken from ChEMBL document CHEMBL1671721, “Chemical validation of phosphodiesterase C as a chemotherapeutic target in Trypanosoma cruzi, the etiological agent of Chagas' disease” (Antimicrob Agents Chemother, 2010).
The source made the active and inactive calls. No cut-off for these calls is given here.

Tests used:
Trypanosoma cruzi = test: Antimicrobial activity against Trypanosoma cruzi Y infected in rat L6E9 myoblasts assessed as inhibition of [5,6-3H]uracil incorporation after 3 days postinfection by scintillation counter; assay type: functional, organism-based
[1] = biological target: T1, Cyclic nucleotide specific phosphodiesterase (Trypanosoma cruzi, UniProt Q53I59); test: Inhibition of Trypanosoma cruzi Y PDEC after 30 mins
T1 sequence (Q53I59 whole entry): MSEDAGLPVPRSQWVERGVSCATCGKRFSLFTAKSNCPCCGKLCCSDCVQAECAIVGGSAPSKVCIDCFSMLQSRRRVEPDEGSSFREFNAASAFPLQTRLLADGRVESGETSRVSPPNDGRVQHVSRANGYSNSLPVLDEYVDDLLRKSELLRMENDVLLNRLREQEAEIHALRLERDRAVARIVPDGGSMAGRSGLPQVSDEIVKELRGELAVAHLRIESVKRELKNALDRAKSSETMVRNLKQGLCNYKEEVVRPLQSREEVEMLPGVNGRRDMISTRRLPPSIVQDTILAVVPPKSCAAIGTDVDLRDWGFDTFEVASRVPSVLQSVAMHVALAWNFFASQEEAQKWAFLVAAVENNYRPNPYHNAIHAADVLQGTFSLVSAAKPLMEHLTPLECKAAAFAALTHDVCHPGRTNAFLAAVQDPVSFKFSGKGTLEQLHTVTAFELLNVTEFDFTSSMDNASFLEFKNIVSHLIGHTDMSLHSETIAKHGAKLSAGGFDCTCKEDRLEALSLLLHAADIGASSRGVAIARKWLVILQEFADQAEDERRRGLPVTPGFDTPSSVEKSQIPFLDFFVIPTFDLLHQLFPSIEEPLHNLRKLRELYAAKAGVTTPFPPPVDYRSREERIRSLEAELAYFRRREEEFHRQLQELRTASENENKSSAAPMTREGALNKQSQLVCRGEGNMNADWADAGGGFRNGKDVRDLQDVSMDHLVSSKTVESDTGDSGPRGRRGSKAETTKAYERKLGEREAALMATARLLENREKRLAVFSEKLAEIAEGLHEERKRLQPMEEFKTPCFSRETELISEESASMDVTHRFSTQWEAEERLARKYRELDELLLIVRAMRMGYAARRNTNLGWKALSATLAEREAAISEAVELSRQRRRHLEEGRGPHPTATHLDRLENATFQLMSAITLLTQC

[2] = Cytotoxicity against rat L6E9 myoblasts at 1 to 25 uM
[3] = biological target: T2, Cyclic nucleotide specific phosphodiesterase (Trypanosoma cruzi) (UniProt Q53I59); test: Inhibition of Trypanosoma cruzi Y PDEC assessed as cAMP accumulation at 90 uM after 1 to 5 mins by luminescence spectrophotometry
T2 sequence (whole entry): T1 sequence (Q53I59 whole entry)

[4] = biological target: T2, Cyclic nucleotide specific phosphodiesterase (Trypanosoma cruzi); test: Inhibition of Trypanosoma cruzi Y PDEC assessed as cAMP accumulation at 26 uM after 1 to 5 mins by luminescence spectrophotometry
Phosphodiesterase 4 = Phosphodiesterase 4 (Homo sapiens, UniProt P27815+Q08499+Q07343+Q08493); test: Inhibition of human PDE4 after 30 mins; assay type: protein assay
[5] = biological target: T2, Cyclic nucleotide specific phosphodiesterase (Trypanosoma cruzi); test: Inhibition of Trypanosoma cruzi Y PDEC assessed as cAMP accumulation at 4.5 to 45 uM after 1 to 5 mins by luminescence spectrophotometry
[6] = biological target: T2, Cyclic nucleotide specific phosphodiesterase (Trypanosoma cruzi); test: Inhibition of Trypanosoma cruzi Y PDEC assessed as cAMP accumulation at 43 uM after 1 to 5 mins by luminescence spectrophotometry
[7] = Cytotoxicity against rat L6E9 myoblasts upto 1 uM

SMILES	IC50 (Trypanosoma cruzi)	IC50 [1]	Activity [2]	inhibition [3]	inhibition [4]	IC50 (Phosphodiesterase 4)	inhibition [5]	inhibition [6]	Activity [7]
O=C(COc1ncnc2cc(Cl)ccc12)Nc1ccccc1Cl	> 10 µM	> 10 µM	Non-toxic						
CCCCC(=O)c1ccc(OC2CCOC2)c(OC)c1 (stereo not drawn)	1.8 µM	5.1 µM	Non-toxic	Active	Active	100 µM	Active	Active	
CCCC(=O)c1ccc(OC)c(OC2CCOC2)c1 (stereo not drawn)	68 µM	> 10 µM	Non-toxic			0.43 µM			
O=S(=O)(Cc1ccco1)Cc1nc(-c2ccccc2)cs1	25 µM	3.8 µM	Non-toxic						
COc1ccc(C=O)cc1OC1CCOC1 (stereo not drawn)	122 µM	> 10 µM	Non-toxic						
O=C1CC(Sc2ccc(Cl)cc2)C(=O)N1Cc1ccncc1 (stereo not drawn)	> 10 µM	10 µM	Non-toxic						
O=C(CCc1ccccc1)c1ccc(OC(F)F)c(OC(F)F)c1	2.3 µM	2.2 µM	Non-toxic			0.082 µM			
Fc1ccccc1Nc1ncnc2c1nnn2Cc1ccccc1	> 10 µM	> 10 µM	Non-toxic						
O=C(CC1CCCCC1)c1ccc(OC(F)F)c(OC(F)F)c1	5.7 µM	5.4 µM	Non-toxic			5.2 µM			
COc1ccc(C(=O)CCc2ccccc2)cc1OC1CCOC1 (stereo not drawn)	5.6 µM	> 10 µM	Non-toxic			2.3 µM			
NNC(=O)c1csc(COc2ccc(C3SCCS3)cc2)n1	> 10 µM	> 10 µM	Non-toxic						
CCCC(O)c1ccc(OC)c(OC2CCOC2)c1 (stereo not drawn)	471 µM	> 10 µM	Non-toxic			100 µM			
O=C(NCc1csc(-c2cccs2)n1)C1=Cc2ccccc2OC1 [SCR 01311]	25 µM	10 µM	Non-toxic						
C=CCn1c(=S)sc2c(Sc3nnc(-c4ccco4)o3)ncnc21	5.4 µM	7 µM	Non-toxic						
CCCC(=O)c1ccc(OC(F)F)c(Oc2ccccn2)c1	10.3 µM	3.5 µM	Non-toxic			40 µM			
CCCCC(=O)c1ccc(OC2CCN(C(=O)OC(C)(C)C)CC2)c(OC)c1	3.8 µM	3.1 µM	Non-toxic			93 µM			
CCOC(=O)c1nc(C)nc(Sc2nnc(-c3ccccc3)[nH]2)c1C	6.4 µM	4.6 µM	Non-toxic						
O=C(CCC1CCCCC1)c1ccc(OC(F)F)c(OC2CCOC2)c1 (stereo not drawn)	5.8 µM	5.3 µM	Non-toxic			1.1 µM			
O=C(Nc1ccc(S(=O)(=O)N2CCCCC2)cc1)NC1CCCC1		> 10 µM	Non-toxic						Toxic
O=C(CN1CCc2ccccc21)Nc1nnc(-c2cccs2)s1	> 10 µM	> 10 µM	Non-toxic						
CC(C)(C)c1cc2ncnc(NNC(=O)c3cccs3)c2s1 [GK03671]	4.8 µM	6.3 µM	Non-toxic						
O=S(=O)(Cc1noc(-c2ccc(Cl)cc2)n1)c1ccccn1		2.4 µM	Non-toxic						Toxic

SMILES	IC50 (Trypanosoma cruzi)	IC50 [1]	Activity [2]	inhibition [3]	inhibition [4]	IC50 (Phosphodiesterase 4)	inhibition [5]	inhibition [6]	Activity [7]
O=C1c2ccccc2S(=O)(=O)N1Cc1nc2ccccc2s1	3.3 µM	5.5 µM	Non-toxic						
COC(OC)c1ccc(C#N)c(SCC(=O)c2ccc(Cl)cc2)n1	> 10 µM	> 10 µM	Non-toxic						
O=S(=O)(Cc1noc(-c2cccs2)n1)c1ccc(F)cc1	> 10 µM	> 10 µM	Non-toxic						
O=C(SCc1ccco1)c1csc(C2COc3ccccc3O2)n1 (stereo not drawn)	25 µM	> 10 µM	Non-toxic						
CCOC(=O)Cc1csc(NC(=O)Nc2ccc(Cl)c(Cl)c2)n1		3.6 µM	Non-toxic						Toxic
CCCC(=O)c1ccc(OC2CCOCC2)c(OC)c1	4 µM	4 µM	Non-toxic			60 µM			
CCCC(=O)c1ccc(OC(F)F)c(OC2CCOCC2)c1	1.6 µM	4.8 µM	Non-toxic	Active	Active	0.35 µM	Active	Active	
COc1ccc(C(=O)CCC2CCCCC2)cc1OC1CCOC1 (stereo not drawn)	6.1 µM	> 10 µM	Non-toxic			1.9 µM			
CCCC(O)c1ccc(OC)c(OC2CCOCC2)c1 (stereo not drawn)	10 µM	> 10 µM	Non-toxic			100 µM			
CCCC(O)(C(=O)c1ccc(OC(F)F)c(Oc2ccccn2)c1)c1cnc2ccccc2c1 (stereo not drawn)	3.8 µM	3.9 µM	Non-toxic			6 µM			
O=Cc1ccc(OC(F)F)c(O)c1	11 µM	> 10 µM	Non-toxic						
O=C(CCCc1ccccc1)c1ccc(OC(F)F)c(OC(F)F)c1	7.7 µM	2.5 µM	Non-toxic			44 µM			
O=S(=O)(Cc1noc(-c2ccno2)n1)Cc1ccco1		4.5 µM	Non-toxic						Toxic
CCCCC(=O)c1ccc(OC)c(OC2CCOCC2)c1	2.1 µM	> 10 µM	Non-toxic			0.72 µM			
COc1ccc(C(=O)CC2CCCCC2)cc1OC1CCOC1 (stereo not drawn)	1.7 µM	4.9 µM	Non-toxic			2.6 µM			
O=C(CCCc1ccccc1)c1ccc(OC(F)F)c(OC2CCOC2)c1 (stereo not drawn)	3.1 µM	3.2 µM	Non-toxic			0.626 µM			
O=C(CC1CCCCC1)c1ccc(OC(F)F)c(OC2CCOC2)c1 (stereo not drawn)	4.4 µM	2.5 µM	Non-toxic			0.667 µM			
CC(C)CC(=O)c1ccc(OC(F)F)c(OC2CCCC2)c1	3.6 µM	3.2 µM	Non-toxic			0.022 µM			
CCCCC(=O)c1ccc(OC2CCOCC2)c(OC)c1	5.2 µM	3.5 µM	Non-toxic	Active	Active	71 µM	Active	Active	
CCCC(c1ccc(Oc2ccccn2)c(OC)c1)c1cnc2ccccc2c1 (stereo not drawn)	1.9 µM	3.3 µM	Non-toxic			6 µM			
O=C(CCc1ccccc1)c1ccc(OC(F)F)c(OC2CCOC2)c1 (stereo not drawn)	3.1 µM	2.5 µM	Non-toxic			0.18 µM			
CCCC(=O)c1ccc(OC2CCOC2)c(OC)c1 (stereo not drawn)	3.7 µM	5.6 µM	Non-toxic			24 µM			
